Experimental data published in article PMC5145856 (Frontiers in Cellular Neuroscience, 2016).
Where “and” joins values, the source holds several entries; their conditions need not be identical. Identical values can stand only once. Like-named read-outs stand apart in the source and are kept apart here.

How the values were obtained:
[1] = biological target: T1, ORco (Anopheles gambiae, UniProt Q7QCC7); test: Photina Ca2+ bioluminescence assay in Hi5 cells expressing ORco alone; type: cell-based; conditions: ORco homomer
T1 construct: expressed in transfected cells; host or cells: Trichoplusia ni BTI-Tn 5B1-4 HighFive (Hi5) cells, transient transfection with pEIA.ORco and pEIA.Photina
T1 sequence (Q7QCC7 1-478): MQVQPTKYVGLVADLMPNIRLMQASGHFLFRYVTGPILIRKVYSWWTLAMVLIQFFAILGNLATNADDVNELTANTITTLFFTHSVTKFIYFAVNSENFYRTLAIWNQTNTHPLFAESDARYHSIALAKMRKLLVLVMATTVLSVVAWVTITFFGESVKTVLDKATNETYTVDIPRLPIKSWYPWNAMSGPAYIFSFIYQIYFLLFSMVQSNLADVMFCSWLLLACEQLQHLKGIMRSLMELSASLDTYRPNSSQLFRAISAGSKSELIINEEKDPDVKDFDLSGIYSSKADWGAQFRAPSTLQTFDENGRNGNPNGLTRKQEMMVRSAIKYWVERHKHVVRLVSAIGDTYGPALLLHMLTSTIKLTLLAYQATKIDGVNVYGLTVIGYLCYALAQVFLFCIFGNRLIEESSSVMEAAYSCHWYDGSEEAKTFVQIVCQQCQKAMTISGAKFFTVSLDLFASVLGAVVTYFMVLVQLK

[2] = biological target: OR53/ORco (Anopheles gambiae, UniProt A0ABK8FS74+Q7QCC7); type: cell-based
[3] = biological target: OR9/ORco (Anopheles gambiae, UniProt A0ABK8FPD1+Q7QCC7); type: cell-based
[4] = biological target: T2, OR2/ORco (Anopheles gambiae, UniProt Q7QCC7+Q8WTE6); test: Photina Ca2+ bioluminescence assay in Hi5 cells expressing OR2/ORco; type: cell-based; conditions: for EC50: OR2+ORco, agonist alone
T2 construct: expressed in transfected cells; host or cells: Trichoplusia ni BTI-Tn 5B1-4 HighFive (Hi5) cells, transient transfection with pEIA plasmids
T2 sequence (Q8WTE6 1-378): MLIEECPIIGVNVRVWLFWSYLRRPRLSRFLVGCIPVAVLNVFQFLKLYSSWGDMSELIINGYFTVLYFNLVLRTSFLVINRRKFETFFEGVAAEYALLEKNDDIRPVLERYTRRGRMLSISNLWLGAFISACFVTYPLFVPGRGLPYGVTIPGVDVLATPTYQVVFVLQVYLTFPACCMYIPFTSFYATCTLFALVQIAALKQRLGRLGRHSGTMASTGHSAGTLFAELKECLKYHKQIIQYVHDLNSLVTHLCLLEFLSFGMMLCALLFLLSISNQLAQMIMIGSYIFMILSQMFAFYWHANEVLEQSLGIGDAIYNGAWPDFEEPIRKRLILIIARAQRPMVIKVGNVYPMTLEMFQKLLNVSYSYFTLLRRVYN
T2 sequence (Q7QCC7 1-478): T1 sequence (Q7QCC7 1-478)

[5] = biological target: T3, OR1/ORco (Anopheles gambiae, UniProt Q7QCC7+Q8WTE7); test: Photina Ca2+ bioluminescence assay in Hi5 cells expressing OR1/ORco; type: cell-based; conditions: for EC50: OR1+ORco, agonist alone
T3 construct: expressed in transfected cells; host or cells: Trichoplusia ni BTI-Tn 5B1-4 HighFive (Hi5) cells, transient transfection with pEIA plasmids
T3 sequence (Q8WTE7 1-417): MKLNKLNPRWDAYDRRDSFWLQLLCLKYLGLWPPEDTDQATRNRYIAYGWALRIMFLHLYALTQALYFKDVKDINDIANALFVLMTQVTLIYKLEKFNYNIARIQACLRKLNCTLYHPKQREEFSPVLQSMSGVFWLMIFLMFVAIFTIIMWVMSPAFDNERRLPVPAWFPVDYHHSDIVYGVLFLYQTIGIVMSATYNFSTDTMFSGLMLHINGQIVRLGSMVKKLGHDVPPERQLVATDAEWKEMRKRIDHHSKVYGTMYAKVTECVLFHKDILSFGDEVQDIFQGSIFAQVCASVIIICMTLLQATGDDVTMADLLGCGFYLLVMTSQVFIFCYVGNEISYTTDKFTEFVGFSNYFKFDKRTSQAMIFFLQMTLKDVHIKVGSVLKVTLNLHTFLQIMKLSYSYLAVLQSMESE
T3 sequence (Q7QCC7 1-478): T1 sequence (Q7QCC7 1-478)

[6] = biological target: T1, ORco; parameters: method as in Tsitoura et al., 2015; conditions: ORco homomer; ref Tsitoura et al., 2015; cited from earlier work
[7] = biological target: T2, OR2/ORco; parameters: method as in Tsitoura et al., 2015; conditions: agonist alone, ref Tsitoura et al., 2015; cited from earlier work
[8] = biological target: T3, OR1/ORco; parameters: method as in Tsitoura et al., 2015; conditions: agonist alone, ref Tsitoura et al., 2015; cited from earlier work
[9] = from the fitted dose-response curve, odorant alone

Sequence of OR53/ORco (A0ABK8FS74 entry or part of it, one chain of several): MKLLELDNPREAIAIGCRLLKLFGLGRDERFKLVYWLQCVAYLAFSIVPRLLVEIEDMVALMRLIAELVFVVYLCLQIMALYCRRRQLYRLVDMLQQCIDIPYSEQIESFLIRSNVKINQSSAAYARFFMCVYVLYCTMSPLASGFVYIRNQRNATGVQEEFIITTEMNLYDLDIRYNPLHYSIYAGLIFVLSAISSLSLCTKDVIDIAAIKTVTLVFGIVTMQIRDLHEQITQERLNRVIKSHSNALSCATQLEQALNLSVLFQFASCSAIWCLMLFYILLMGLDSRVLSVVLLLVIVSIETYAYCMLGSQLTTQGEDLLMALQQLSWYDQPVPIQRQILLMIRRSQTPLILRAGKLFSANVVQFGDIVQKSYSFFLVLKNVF
Sequence of OR9/ORco (A0ABK8FPD1 entry or part of it, one chain of several): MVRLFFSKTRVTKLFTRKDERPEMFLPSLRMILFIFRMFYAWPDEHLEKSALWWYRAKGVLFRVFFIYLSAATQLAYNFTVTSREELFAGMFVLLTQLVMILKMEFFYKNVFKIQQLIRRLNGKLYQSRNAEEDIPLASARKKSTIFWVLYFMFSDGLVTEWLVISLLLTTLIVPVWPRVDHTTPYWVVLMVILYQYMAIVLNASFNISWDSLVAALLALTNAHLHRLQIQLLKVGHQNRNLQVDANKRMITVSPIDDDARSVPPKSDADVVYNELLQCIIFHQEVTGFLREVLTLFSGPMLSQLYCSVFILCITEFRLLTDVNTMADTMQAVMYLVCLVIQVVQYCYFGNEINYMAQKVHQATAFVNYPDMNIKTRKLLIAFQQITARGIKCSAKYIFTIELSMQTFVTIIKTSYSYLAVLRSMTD

In the case of `CCc1ccc(NC(=O)CSc2nnc(-c3ccncc3)n2CC)cc1` [OA, N-(4-ethylphenyl)-2-((4-ethyl-5-(4-pyridinyl)-4H-1,2,4-triazol-3-yl)thio)acetamide], the EC50 [1] is reported as 97 µM and 96.6 µM, the EC50 ([1]; listed as OrcoRAM2) is reported as 100 µM and the “Relative efficacy* (relative to ORco)” value [2] is reported as 3.87 fold. For the same molecule, the “Relative efficacy§ (potentiation relative to 100 µM ORx-specific odorant)” value [2] was 140.85 fold and 140 fold and 141 fold, the “Relative efficacy§ (relative to 100 µM ORx-specific odorant)” value [2] was 16.3 fold and the EC50 ([2]; read-out: EC50) was 57 µM and 56.6 µM. The “Potentiation magnitude at EC20 of odorant” value (“Potentiation magnitude” for short) [3] was ~ 10 fold, the “Relative efficacy# (relative to 100 µM ORx-specific odorant)” value (“Relative efficacy#” for short) [3] was 10.4 fold and the “Relative efficacy* (relative to ORco)” value [3] was 1,05 fold. The “Relative efficacy§ (potentiation relative to 100 µM ORx-specific odorant)” value [3] was 4.94 fold, the “Relative efficacy§ (relative to 100 µM ORx-specific odorant)” value [3] was 0.05 fold and the EC50 ([3]; read-out: EC50) was 79 µM and 78.7 µM. For the same molecule, the “Potentiation magnitude” value [4] was ~ 53 fold, the “Relative efficacy§ (relative to 100 µM ORx-specific odorant)” value ([4]; 10 µM ORcoRAM2 alone vs 100 µM IN, Figure 3A) was 0.57 fold and the “Relative efficacy§ (potentiation relative to 100 µM ORx-specific odorant)” value ([4]; 10 µM ORcoRAM2 together with 100 µM IN vs 100 µM IN alone, Figure 3A) was 8.09 fold. For the same molecule, the “Relative efficacy* (relative to ORco)” value ([4]; 100 µM ORcoRAM2, no odorant, OR2/ORco vs ORco homomer, Figure 1A) was 3.2 fold, the “Relative efficacy#” value ([4]; 100 µM ORcoRAM2 alone vs 100 µM IN, Figure 1C) was 6.22 fold and the EC50 [4] was 44 µM and 43.6 µM. The “Potentiation magnitude” value ([5]; 10 µM OA (ORcoRAM2), 4MP at EC20 (427nM)) was ~ 93 fold, the “Relative efficacy§ (relative to 100 µM ORx-specific odorant)” value ([5]; 10 µM ORcoRAM2 alone vs 100 µM 4MP, Figure 3A) was 2.88 fold and the “Relative efficacy§ (potentiation relative to 100 µM ORx-specific odorant)” value ([5]; 10 µM ORcoRAM2 together with 100 µM 4MP vs 100 µM 4MP alone, Figure 3A) was 32.45 fold. For the same molecule, the “Relative efficacy#” value ([5]; 100 µM ORcoRAM2 alone vs 100 µM 4MP, Figure 1C) was 10,22 fold, the EC50 [5] was 57 µM and 56.6 µM and the EC50 [6] was 59 µM and 58.9 µM.

With `CCc1ccccc1O` [2EP, 2-Ethylphenol] the “Concentration of the odorant at EC20” value [3] was 35 µM, the “Functional response of receptor to odorant” value [3] was “responded” and the EC50 ([3]; OR9+ORco, agonist alone) was 77.6 µM. The “pEC50 ± SE” value ([3]; OR9+ORco, agonist alone) was 4.110 ± 0.009062 and the EC50 ([3]; OR9+ORco, agonist alone, listed as 2-ethylphenol) was ~78 µM.

In the case of `c1ccc2[nH]ccc2c1` [IN, Indole], the EC50 [7] is given as 3.4 µM, the EC50 [4] is given as 5.5 µM and the “Concentration of the odorant at EC20” value [4, 9] is given as 3.3 µM.

For `Cc1ccc(O)cc1` [4MP, 4-Methylphenol], the EC50 [5] is listed as 1.2 µM, the “Concentration of the odorant at EC20” value [5, 9] is listed as 0.427 µM and the EC50 [8] is listed as 2.8 µM.

For `C=CC(C)(O)CCC=C(C)C` (stereo not shown) [LIN, Linalool], the “Concentration of the odorant at EC20” value [2] was 105 µM, the “Functional response of receptor to odorant” value [2] was “clear responses” and the EC50 ([2]; OR53+ORco, agonist alone) was 181 µM. The “pEC50 ± SE” value ([2]; OR53+ORco, agonist alone) was 3.742 ± 0.04453 and the EC50 ([2]; OR53+ORco, agonist alone, listed as linalool) was ~180 µM.
